From the NIST ThermoML archive (doi:10.1021/je201334p)

Experiments:
[1] = xn = mol fraction of the nth substance listed; conditions: 101 kPa, Liquid; for speed of sound: Sing-around technique in a fixed-path interferometer; for mass density: Vibrating tube method
[2] = refractive index (Na D-line) (dimensionless); xn = mol fraction of the nth substance listed; conditions: 101 kPa, Liquid, Standard Abbe refractometry

CCCCn1cc[n+](C)c1.N#CN=C=[N-] [1-butyl-3-methylimidazolium dicyanamide] + O
Conditions	mass density, 288.15 K [kg/m3]	mass density, 298.15 K [kg/m3]	mass density, 308.15 K [kg/m3]	refractive index, 288.15 K	refractive index, 298.15 K	refractive index, 308.15 K	speed of sound, 288.15 K [m/s]	speed of sound, 298.15 K [m/s]	speed of sound, 308.15 K [m/s]
[1], x2 = 0	1066.58	1060.17	1053.83	–	–	–	1764.3	1738.1	1713.1
[1], x2 = 0.1088	1065.59	1059.16	1052.79	–	–	–	1762	1736.9	1712.4
[1], x2 = 0.1227	1065.44	1059.01	1052.64	–	–	–	1761.9	1736.8	1712.2
[1], x2 = 0.2017	1064.62	1058.16	1051.77	–	–	–	1760.9	1735.9	1711.6
[1], x2 = 0.2943	1063.46	1056.98	1050.55	–	–	–	1759.9	1735	1710.7
[1], x2 = 0.3952	1061.88	1055.35	1048.88	–	–	–	1758.3	1734	1710
[1], x2 = 0.503	1059.83	1053.24	1046.7	–	–	–	1756.8	1733	1709.4
[1], x2 = 0.5985	1057.37	1050.71	1044.09	–	–	–	1755.5	1732.1	1709
[1], x2 = 0.7032	1053.63	1046.89	1040.15	–	–	–	1751.4	1729.1	1706.9
[1], x2 = 0.805	1047.26	1040.5	1033.69	–	–	–	1738.5	1718.6	1698.2
[1], x2 = 0.9006	1035.92	1029.6	1023.11	–	–	–	1694.1	1682.2	1668.8
[1], x2 = 0.9503	1024.07	1018.75	1013.06	–	–	–	1630.6	1630.5	1627.4
[2], x2 = 0	–	–	–	1.51213	1.50893	1.50578	–	–	–
[2], x2 = 0.1088	–	–	–	1.5099	1.50673	1.50348	–	–	–
[2], x2 = 0.1227	–	–	–	1.50953	1.50631	1.50321	–	–	–
[2], x2 = 0.2017	–	–	–	1.50758	1.50443	1.50114	–	–	–
[2], x2 = 0.2943	–	–	–	1.50476	1.50161	1.49821	–	–	–
[2], x2 = 0.3952	–	–	–	1.50075	1.49756	1.49443	–	–	–
[2], x2 = 0.503	–	–	–	1.49536	1.49223	1.48897	–	–	–
[2], x2 = 0.5985	–	–	–	1.48855	1.48541	1.48225	–	–	–
[2], x2 = 0.7032	–	–	–	1.47799	1.47495	1.47147	–	–	–
[2], x2 = 0.805	–	–	–	1.46004	1.45694	1.45386	–	–	–
[2], x2 = 0.9006	–	–	–	1.42867	1.42613	1.42382	–	–	–
[2], x2 = 0.9503	–	–	–	1.39733	1.3952	1.39322	–	–	–

CCCCn1cc[n+](C)c1.O=S(=O)([O-])C(F)(F)F [1-butyl-3-methylimidazolium trifluoromethanesulfonate] + O
Conditions	mass density, 288.15 K [kg/m3]	mass density, 298.15 K [kg/m3]	mass density, 308.15 K [kg/m3]	refractive index, 288.15 K	refractive index, 298.15 K	refractive index, 308.15 K	speed of sound, 288.15 K [m/s]	speed of sound, 298.15 K [m/s]	speed of sound, 308.15 K [m/s]
[1], x2 = 0	1307.5	1299.55	1291.62	–	–	–	1414.3	1391.4	1369.1
[1], x2 = 0.1348	1303.64	1295.68	1287.74	–	–	–	1419.7	1396.7	1374.8
[1], x2 = 0.2028	1301.3	1293.3	1285.33	–	–	–	1422.9	1400.2	1378.1
[1], x2 = 0.2056	1301.2	1293.22	1285.23	–	–	–	1423.2	1400.9	1379.4
[1], x2 = 0.3083	1296.7	1288.66	1280.65	–	–	–	1429.3	1406.7	1384.6
[1], x2 = 0.4985	1284.57	1276.45	1268.32	–	–	–	1445	1422.8	1400.9
[1], x2 = 0.6062	1273.42	1265.25	1257.08	–	–	–	1458	1436.4	1414.8
[1], x2 = 0.7015	1258.59	1250.44	1242.22	–	–	–	1473.8	1453.1	1432
[1], x2 = 0.8064	1231.3	1223.33	1215.23	–	–	–	1496.3	1478.8	1460
[1], x2 = 0.8998	1180.1	1172.98	1165.56	–	–	–	1523.9	1513.4	1500.5
[1], x2 = 0.9309	1149.84	1143.39	1136.56	–	–	–	1533.1	1527.6	1519.2
[1], x2 = 0.9548	1116.26	1110.62	1104.51	–	–	–	1540	1540.1	1536.7
[2], x2 = 0	–	–	–	1.44032	1.43755	1.43475	–	–	–
[2], x2 = 0.1348	–	–	–	1.43903	1.43626	1.43343	–	–	–
[2], x2 = 0.2028	–	–	–	1.43815	1.43535	1.43259	–	–	–
[2], x2 = 0.2056	–	–	–	1.4381	1.4353	1.43253	–	–	–
[2], x2 = 0.3083	–	–	–	1.43654	1.43373	1.4309	–	–	–
[2], x2 = 0.4985	–	–	–	1.43224	1.4294	1.42655	–	–	–
[2], x2 = 0.6062	–	–	–	1.42835	1.42546	1.42268	–	–	–
[2], x2 = 0.7015	–	–	–	1.42301	1.42021	1.41759	–	–	–
[2], x2 = 0.8064	–	–	–	1.41332	1.41072	1.40803	–	–	–
[2], x2 = 0.8998	–	–	–	1.39564	1.39323	1.39103	–	–	–
[2], x2 = 0.9309	–	–	–	1.38516	1.3829	1.38091	–	–	–
[2], x2 = 0.9548	–	–	–	1.37365	1.37157	1.36969	–	–	–

CCCC[n+]1cccc(C)c1.O=S(=O)([O-])C(F)(F)F [1-butyl-3-methylpyridinium trifluoromethanesulfonate] + O
Conditions	mass density, 288.15 K [kg/m3]	mass density, 298.15 K [kg/m3]	mass density, 308.15 K [kg/m3]	refractive index, 288.15 K	refractive index, 298.15 K	refractive index, 308.15 K	speed of sound, 288.15 K [m/s]	speed of sound, 298.15 K [m/s]	speed of sound, 308.15 K [m/s]
[1], x2 = 0	1287.07	1279.41	1271.8	–	–	–	1436.1	1412.3	1389.6
[1], x2 = 0.0794	1285.23	1277.62	1269.98	–	–	–	1439.2	1415.5	1392.5
[1], x2 = 0.1517	1283.28	1275.63	1267.96	–	–	–	1442.3	1418.7	1395.8
[1], x2 = 0.2502	1279.99	1272.28	1264.58	–	–	–	1447.7	1424.3	1401.5
[1], x2 = 0.3515	1275.76	1268	1260.24	–	–	–	1454.3	1431.2	1408.5
[1], x2 = 0.4528	1270.21	1262.4	1254.58	–	–	–	1463	1440	1417.4
[1], x2 = 0.5628	1261.9	1254.01	1246.08	–	–	–	1475.6	1452.9	1430.3
[1], x2 = 0.6561	1251.55	1243.59	1235.57	–	–	–	1489.9	1467.6	1445.3
[1], x2 = 0.7494	1235.48	1227.52	1219.46	–	–	–	1508.6	1487.4	1465.8
[1], x2 = 0.8383	1208.29	1200.56	1192.69	–	–	–	1530.4	1512.5	1493.4
[1], x2 = 0.9201	1155.76	1149.07	1142.04	–	–	–	1548.9	1540.1	1528.6
[1], x2 = 0.9603	1103.57	1098.18	1092.3	–	–	–	1553.2	1553.5	1550.4
[2], x2 = 0	–	–	–	1.46446	1.46155	1.45868	–	–	–
[2], x2 = 0.0794	–	–	–	1.46358	1.46073	1.45784	–	–	–
[2], x2 = 0.1517	–	–	–	1.46266	1.45982	1.45694	–	–	–
[2], x2 = 0.2502	–	–	–	1.46111	1.45822	1.45535	–	–	–
[2], x2 = 0.3515	–	–	–	1.4591	1.45623	1.45331	–	–	–
[2], x2 = 0.4528	–	–	–	1.45651	1.45363	1.45069	–	–	–
[2], x2 = 0.5628	–	–	–	1.45257	1.44968	1.44673	–	–	–
[2], x2 = 0.6561	–	–	–	1.4477	1.44482	1.44183	–	–	–
[2], x2 = 0.7494	–	–	–	1.44008	1.43724	1.43429	–	–	–
[2], x2 = 0.8383	–	–	–	1.42747	1.42474	1.42192	–	–	–
[2], x2 = 0.9201	–	–	–	1.40357	1.40118	1.39863	–	–	–
[2], x2 = 0.9603	–	–	–	1.37998	1.37782	1.3757	–	–	–
